Values belong to the compound of their own block, whether it stands above or below them.
Columns and labels:
[1] = Dissolution Assay in Fasted Simulated Gastric Fluid; type: physicochemical; conditions: Fasted Simulated Gastric Fluid (FaSSGF), 37° C.
Method: The dissolution bath was filled with 900 mL of media for testing, the bath temperature held at 37° C., the rotation rate of the apparatus was 50 rpm, the draw point for the sampling probe was set exactly halfway between the surface of the media and the surface of the disc. The test article (0.4 g) was compressed into a disc using a Woods apparatus. The sampling time points were 10, 30, 60, 90, 120, 150 & 180. The samples were analysed by HPLC for concentration against a sample preparation of known concentration (ca. 0.5 mg/ml). Dissolution rate was derived from the curve of concentration against time.

[2] = Solid form stability of Compound 1 mesylate forms; type: physicochemical

SMILES: CS(=O)(=O)O.O=C1NCc2nc(-c3c(F)cccc3F)cc(Nc3ccc(C(=O)N4CCCC4)cc3)c21 [Form V]
- solid form stability ([2]; upon grinding): transition to Form I

SMILES: CS(=O)(=O)O.O=C1NCc2nc(-c3c(F)cccc3F)cc(Nc3ccc(C(=O)N4CCCC4)cc3)c21 [Form III]
- solid form stability ([2]; upon drying under ambient conditions): transition to Form IV

SMILES: CS(=O)(=O)O.O=C1NCc2nc(-c3c(F)cccc3F)cc(Nc3ccc(C(=O)N4CCCC4)cc3)c21 [Form IV]
- solid form stability ([2]; ambient conditions): stable at ambient conditions

Now from value to compound:

- dissolution rate [1]: 57.5 μg/cm^2/min
SMILES: O=C1NCc2nc(-c3c(F)cccc3F)cc(Nc3ccc(C(=O)N4CCCC4)cc3)c21 [Compound 1]

- dissolution rate [1]: 21.2 μg/cm^2/min
SMILES: O=C1NCc2nc(-c3c(F)cccc3F)cc(Nc3ccc(C(=O)N4CCOCC4)cc3)c21 [Compound 9]
